Legend:
OVCAR-3 = assay: NCI five-dose testing, OVCAR-3; details: for GI50 / CC50: Homo sapiens; for GI50 / TGI: OVCAR-3; for CC50: OVCAR-3, read-out: LC50; for TGI: Ovarian Cancer
MDA-MB-468 = assay: NCI five-dose testing, MDA-MB-468; details: for TGI: Breast Cancer; for TGI / GI50: MDA-MB-468; for GI50 / CC50: Homo sapiens; for CC50: MDA-MB-468, read-out: LC50
SK-MEL-2 = assay: NCI five-dose testing, SK-MEL-2; format: cell-based; details: Melanoma
SK-MEL-5 = assay: NCI five-dose testing, SK-MEL-5; format: cell-based; details: Melanoma; for GI50 / CC50: Homo sapiens; for CC50: read-out: LC50 (the source's name)
OVCAR-4 = assay: NCI five-dose testing, OVCAR-4
CCRF-CEM = assay: NCI five-dose testing, CCRF-CEM; details: for GI50 / CC50: Homo sapiens; for CC50: read-out: LC50; for TGI: Leukemia
HL-60(TB) = assay: NCI five-dose testing, HL-60(TB); details: for GI50 / CC50: Homo sapiens; for GI50: HL-60; for CC50: HL-60, read-out: LC50; for TGI: Leukemia, HL-60(TB)
IGROV1 = assay: NCI five-dose testing, IGROV1; format: cell-based
KM12 [1] = details: Colon Cancer
KM12 [2] = assay: cells; details: Homo sapiens
K-562 = assay: NCI five-dose testing, K-562
T-47D = assay: NCI five-dose testing, T-47D; details: for TGI: Breast Cancer, T-47D; for GI50 / CC50: Homo sapiens, T47D; for CC50: read-out: LC50
MOLT-4 = assay: NCI five-dose testing, MOLT-4
NCI-H522 = assay: NCI five-dose testing, NCI-H522
RPMI-8226 = assay: NCI five-dose testing, RPMI-8226

Question: What does the source list for `COC1C[C@H]2C[C@]34CC3[C@H]2[C@]23C4C4=C(C(=O)c5ccccc5C4=O)N2C(=O)C(=O)N13` (stereo partly drawn)?
Answer: GI50 (OVCAR-3): 1.49 µM; CC50 (OVCAR-3): 19.6 µM; TGI (OVCAR-3): 4.93 × 10^−6; TGI (MDA-MB-468): 3.18 × 10^−6; GI50 (MDA-MB-468): 1.31 µM; CC50 (MDA-MB-468): 7.73 µM

Question: For `C[C@]12C3=C(C(=O)c4ccccc4C3=O)N3C(=O)C(=O)N4C[C@H]5C[C@@]16CC6[C@@]5(C)[C@@]432` (stereo partly drawn), which GI50 (SK-MEL-2; Homo sapiens) is on record?
Answer: 1.27 µM

Question: And the CC50 (SK-MEL-2; Homo sapiens, read-out: LC50 (the source's name))?
Answer: 5.2 µM

Question: And the TGI (SK-MEL-2)?
Answer: 2.57 × 10^−6

Question: And the GI50 (SK-MEL-5)?
Answer: 1.3 µM

Question: And the CC50 (SK-MEL-5)?
Answer: 7.32 µM

Question: And the TGI (SK-MEL-5)?
Answer: 3.08 × 10^−6

Question: What about the GI50 (OVCAR-4; Homo sapiens, OVCAR-4) of the same compound?
Answer: 1.36 µM

Question: What about the CC50 (OVCAR-4; Homo sapiens, OVCAR-4, read-out: LC50) of the same compound?
Answer: 5.17 µM

Question: What about the TGI (OVCAR-4; Ovarian Cancer, OVCAR-4) of the same compound?
Answer: 2.65 × 10^−6

Question: What about the GI50 (CCRF-CEM) of the same compound?
Answer: 1.23 µM

Question: And the CC50 (CCRF-CEM)?
Answer: 5 µM

Question: And the TGI (CCRF-CEM)?
Answer: 2.48 × 10^−6

Question: What about the GI50 (HL-60(TB)) of the same compound?
Answer: 0.267 µM

Question: And the CC50 (HL-60(TB))?
Answer: 3.28 µM

Question: What about the TGI (HL-60(TB)) of the same compound?
Answer: 1.06 × 10^−6

Question: And the TGI (MDA-MB-468)?
Answer: 1.55 × 10^−6

Question: And the GI50 (MDA-MB-468)?
Answer: 0.384 µM

Question: And the CC50 (MDA-MB-468)?
Answer: 4.03 µM

Question: With `COC1=C[C@H]2C3=C(C(=O)c4ccccc4C3=O)N3C(=O)C(=O)N(Cc4ccco4)[C@]23C=C1` as the compound, how does the GI50 (SK-MEL-5) read?
Answer: 1.13 µM

Question: And the CC50 (SK-MEL-5)?
Answer: 9.08 µM

Question: What about the TGI (SK-MEL-5) of the same compound?
Answer: 3.21 × 10^−6

Question: And the GI50 (IGROV1; Homo sapiens, IGROV-1, Ovarian Cancer)?
Answer: 1.38 µM

Question: And the CC50 (IGROV1; Homo sapiens, IGROV-1, Ovarian Cancer, read-out: LC50 (the source's name))?
Answer: ≥ 100 µM

Question: And the TGI (IGROV1; Ovarian Cancer)?
Answer: 6.38 × 10^−6

Question: What about the TGI (MDA-MB-468) of the same compound?
Answer: 1.35 × 10^−6

Question: What about the GI50 (MDA-MB-468) of the same compound?
Answer: 0.177 µM

Question: And the CC50 (MDA-MB-468)?
Answer: 7.96 µM

Question: For `COc1cccc(OC)c1N(Cc1ccoc1)C(=O)C(=O)NC1=CC(=O)c2ccccc2C1=O`, which TGI (KM12 [1]) is on record?
Answer: 3.51 × 10^−6

Question: What about the GI50 (KM12 [2]; KM12) of the same compound?
Answer: 1.25 µM

Question: And the CC50 (KM12 [2]; KM12, read-out: LC50)?
Answer: 9.84 µM

Question: What about the GI50 (K-562; Homo sapiens, K562) of the same compound?
Answer: 1.46 µM

Question: And the CC50 (K-562; Homo sapiens, K562, read-out: LC50)?
Answer: 5.37 µM

Question: What about the TGI (K-562; Leukemia, K-562) of the same compound?
Answer: 2.80 × 10^−6

Question: And the TGI (T-47D)?
Answer: 2.81 × 10^−6

Question: And the GI50 (T-47D)?
Answer: 1.48 µM

Question: What about the CC50 (T-47D) of the same compound?
Answer: 5.34 µM

Question: What about the GI50 (MOLT-4; Homo sapiens, MOLT-4) of the same compound?
Answer: 0.462 µM

Question: What about the CC50 (MOLT-4; Homo sapiens, MOLT-4, read-out: LC50) of the same compound?
Answer: 3.98 µM

Question: What about the TGI (MOLT-4; Leukemia, MOLT-4) of the same compound?
Answer: 1.57 × 10^−6

Question: What about the GI50 (OVCAR-3) of the same compound?
Answer: 1.18 µM

Question: And the CC50 (OVCAR-3)?
Answer: 4.96 µM

Question: What about the TGI (OVCAR-3) of the same compound?
Answer: 2.42 × 10^−6

Question: And the GI50 (CCRF-CEM)?
Answer: 0.437 µM

Question: What about the CC50 (CCRF-CEM) of the same compound?
Answer: 3.89 µM

Question: And the TGI (CCRF-CEM)?
Answer: 1.48 × 10^−6

Question: And the GI50 (NCI-H522; Homo sapiens, NCI-H522)?
Answer: 1.33 µM

Question: What about the CC50 (NCI-H522; Homo sapiens, NCI-H522, read-out: LC50) of the same compound?
Answer: 5.14 µM

Question: And the TGI (NCI-H522; Non-Small Cell Lung Cancer, NCI-H522)?
Answer: 2.61 × 10^−6

Question: And the GI50 (HL-60(TB))?
Answer: 0.282 µM

Question: And the CC50 (HL-60(TB))?
Answer: 1.48 µM

Question: And the TGI (HL-60(TB))?
Answer: 5.69 × 10^−7

Question: And the GI50 (RPMI-8226; Homo sapiens, RPMI-8226)?
Answer: 1.3 µM

Question: What about the CC50 (RPMI-8226; Homo sapiens, RPMI-8226, read-out: LC50) of the same compound?
Answer: 5.12 µM

Question: And the TGI (RPMI-8226; Leukemia, RPMI-8226)?
Answer: 2.57 × 10^−6

Question: And the TGI (MDA-MB-468)?
Answer: 8.99 × 10^−7

Question: And the GI50 (MDA-MB-468)?
Answer: 0.251 µM

Question: And the CC50 (MDA-MB-468)?
Answer: 3.02 µM

Question: Which results are given for `O=C1C2=C(C(=O)c3ccccc31)N1C(=O)N(Cc3ccccc3)C[C@@]13C=C[C@@H]2O3`?
Answer: TGI (T-47D): 3.26 × 10^−6; GI50 (T-47D): 1.39 µM; CC50 (T-47D): 7.64 µM; TGI (MDA-MB-468): 1.59 × 10^−6; GI50 (MDA-MB-468): 0.472 µM; CC50 (MDA-MB-468): 4.08 µM

Reference: patent US20250382302A1, “Anticancer polyheterocyclic compounds and associated methods” (University of Denver, priority 2024, published 2025)
